One may read the Kd as the equilibrium constant for the complex coming apart. One may read the IC50 as the concentration needed to halve the response being measured.

Active and inactive are the calls of the source. No cut-off for these calls is given here.

One assay deals with T1, Replication protein A 70 kDa DNA-binding subunit (Homo sapiens, UniProt P27694). Kind of assay: Binding affinity to human RPA70N expressed in Escherichia coli BL21 (DE3) assessed as inhibition of interaction with FITC-Ahx-DFTADDLEELDTLAS-NH2 after 1 hr by fluorescence polarization anisotropy assay. (In general: Polarisation of emitted light reports the rotation of a fluorescent probe.)
T1 sequence (P27694 whole entry): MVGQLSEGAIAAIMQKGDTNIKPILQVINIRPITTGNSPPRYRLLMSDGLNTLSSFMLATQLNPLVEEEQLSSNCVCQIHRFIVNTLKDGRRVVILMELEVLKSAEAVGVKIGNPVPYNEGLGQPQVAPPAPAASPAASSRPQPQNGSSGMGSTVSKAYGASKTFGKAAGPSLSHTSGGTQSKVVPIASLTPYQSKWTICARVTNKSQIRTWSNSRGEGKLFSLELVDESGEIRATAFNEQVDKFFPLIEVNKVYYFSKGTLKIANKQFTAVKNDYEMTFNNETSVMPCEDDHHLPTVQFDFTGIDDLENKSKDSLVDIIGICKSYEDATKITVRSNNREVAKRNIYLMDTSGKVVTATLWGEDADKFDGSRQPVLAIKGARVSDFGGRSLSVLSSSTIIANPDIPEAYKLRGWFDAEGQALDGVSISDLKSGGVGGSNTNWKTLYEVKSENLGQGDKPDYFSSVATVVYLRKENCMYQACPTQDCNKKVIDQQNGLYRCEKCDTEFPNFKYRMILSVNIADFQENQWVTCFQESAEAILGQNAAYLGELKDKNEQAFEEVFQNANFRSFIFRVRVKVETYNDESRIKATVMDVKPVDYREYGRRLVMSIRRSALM
For `CC(C)C1=C[C@]23CC[C@@H]4[C@](C)(CCC[C@@]4(C)C(=O)O)[C@H]2C[C@@H]1[C@@H](C(=O)O)[C@@H]3C(=O)O`, the Kd is 18.3 µM.

Another assay has as its target T1, Replication protein A 70 kDa DNA-binding subunit. The experiment in a line: Binding affinity to human RPA70N assessed as inhibition of interaction with FITC-Ahx-DFTADDLEELDTLAS-NH2 after 1 hr by fluorescence polarization anisotropy assay.
As to `O=C(O)c1cc2ccc(-n3c(-c4cc(Cl)cc(Cl)c4)n[nH]c3=S)cc2s1`, the Kd was 35 µM. Regarding `Cc1ccccc1-c1nnc(S)n1-c1ccc2cc(C(=O)O)sc2c1`, the Kd is greater than 250 µM.

Turning to `O=C(O)c1cc2ccc(-n3c(S)nnc3-c3ccc(Cl)cc3)cc2s1`, the Kd came to 78 µM. In the case of `O=C(O)c1sc2cc(-n3c(-c4cccc(Oc5ccccc5)c4)n[nH]c3=S)ccc2c1Cl`, the Kd worked out at 63 µM. As to `O=C(O)c1cc2ccc(-n3c(S)nnc3-c3ccc(Cl)c(Cl)c3)cc2s1`, the Kd was 22 µM. Same read-out and setting: the same measure for `O=C(O)c1cc2ccc(-n3c(S)nnc3-c3ccccc3)cc2s1`: greater than 250 µM; for `Cc1cccc(-c2n[nH]c(=S)n2-c2ccc3c(Cl)c(C(=O)O)sc3c2)c1`: 83 µM. Same read-out and setting: the figure for `O=C(O)c1sc2cc(-n3c(S)nnc3-c3ccccc3)ccc2c1Cl` is 130 µM; for `O=C(O)c1sc2cc(-n3c(S)nnc3-c3ccc(Br)c(Cl)c3)ccc2c1Cl` it is 11 µM; for `O=C(O)c1sc2cc(-n3c(-c4cc(Cl)cc(Cl)c4)n[nH]c3=S)ccc2c1Cl` it is 15 µM. For the compound `O=C(O)c1sc2cc(-n3c(-c4ccc(Cl)c(Br)c4)n[nH]c3=S)ccc2c1Cl`, the Kd was determined as 16 µM. Consider `Cc1ccccc1-c1nnc(S)n1-c1ccc2c(Cl)c(C(=O)O)sc2c1`, for which the Kd was found to be 66 µM.

As to `O=C(O)CSc1nnc(-c2ccc(F)cc2)n1-c1cccc(Cl)c1`, the Kd was greater than 250 µM. `O=C(O)c1sc2cc(-n3c(S)nnc3-c3ccc(Cl)c(Cl)c3)ccc2c1Cl`: the dissociation constant Kd was 11 µM. In the case of `Clc1ccc(-c2nn[nH]n2)cc1`, the Kd worked out at 1850 µM. For the compound `O=C(O)c1sc2cc(-n3c(S)nnc3-c3cccc(Br)c3)ccc2c1Cl`, the Kd was found to be 58 µM. Turning to `O=C(O)c1sc2cc(-n3c(S)nnc3-c3c[nH]c4ccccc34)ccc2c1Cl`, the Kd is greater than 250 µM.

Take `O=C(O)CSc1nnc(-c2sc3ccccc3c2Cl)n1-c1ccccc1`: the dissociation constant Kd came out at 135 µM. In the case of `O=C(O)c1cc2ccc(-n3c(-c4ccc(Br)cc4)n[nH]c3=S)cc2s1`, the dissociation constant Kd amounted to 71 µM. Still for that read-out and setting: the figure for `O=C(O)c1sc2cc(-n3c(S)nnc3-c3ccc(F)cc3)ccc2c1Cl` is 47 µM; for `Nc1ccc(-c2nnc(SCC(=O)O)n2-c2ccc(Cl)c(Cl)c2)cc1` it is 109 µM. For the compound `O=C(O)CSc1nnc(-c2ccc(O)cc2)n1-c1ccc(Cl)c(Cl)c1`, the Kd was 233 µM.

With `O=C(O)CSc1nnc(-c2ccccc2Br)n1-c1cccc(Cl)c1`, the dissociation constant Kd is greater than 250 µM.

In the case of `COc1ccc(-c2nnc(SCC(=O)O)n2-c2cccc(Cl)c2)cc1`, the Kd was greater than 250 µM. With `O=C(O)c1cc2ccc(-n3c(-c4cccc(Br)c4)n[nH]c3=S)cc2s1`, the Kd was determined as 49 µM. Same read-out and setting: the figure for `O=C(O)CSc1nnc(-c2sc3ccccc3c2Cl)n1-c1ccc(Cl)c(Cl)c1` is 46 µM; for `O=C(O)CSc1nnc(-c2ccccc2Cl)n1-c1cccc(Cl)c1` it is greater than 250 µM. With `O=C(O)c1sc2cc(Cl)ccc2c1Cl`, the dissociation constant Kd was found to be 627 µM. In the case of `Cc1ccccc1-c1nnc(SCC(=O)O)n1-c1cccc(Cl)c1`, the Kd was greater than 250 µM. As to `O=C(O)CSc1nnc(-c2ccc([N+](=O)[O-])cc2)n1-c1ccc(Cl)c(Cl)c1`, the dissociation constant Kd worked out at 178 µM. Same read-out and setting: the figure for `O=C(O)c1sc2cc(-n3c(S)nnc3-c3ccc(Cl)cc3)ccc2c1Cl` is 52 µM. Consider `COc1ccc(-c2nnc(SCC(=O)O)n2-c2ccc(Cl)cc2)cc1`, for which the dissociation constant Kd is greater than 250 µM. Consider `Cc1ccc2c(Cl)c(-c3nnc(SCC(=O)O)n3-c3ccc(Cl)c(Cl)c3)sc2c1`, for which the dissociation constant Kd came out at 18 µM.

As to `O=C(O)c1sc2cc(-n3c(-c4ccc5ccccc5c4)n[nH]c3=S)ccc2c1Cl`, the equilibrium dissociation constant (Kd) stood at 43 µM. Turning to `Cc1ccc(-c2nnc(S)n2-c2ccc3cc(C(=O)O)sc3c2)cc1`, the dissociation constant (Kd) was greater than 250 µM. On the same count and under the same terms, the figure for `Cc1ccc(-c2n[nH]c(=S)n2-c2ccc3c(Cl)c(C(=O)O)sc3c2)cc1` is 92 µM; for `O=C(O)c1sc2cc(-n3c(S)nnc3C3CCCCC3)ccc2c1Cl` it is 25 µM. `O=C(O)CSc1nnc(-c2ccc(F)cc2)n1-c1ccc(Cl)cc1`: the dissociation constant Kd was greater than 250 µM. Turning to `COc1ccc(-c2nnc(SCC(=O)O)n2-c2ccc(Cl)c(Cl)c2)cc1`, the Kd is 164 µM. Consider `O=C(O)c1sc2cc(-n3c(S)nnc3-c3ccc(Br)cc3)ccc2c1Cl`, for which the equilibrium dissociation constant (Kd) came out at 42 µM. For `Cc1cc(-c2nnc(S)n2-c2ccc3c(Cl)c(C(=O)O)sc3c2)ccc1Br`, the dissociation constant (Kd) worked out at 31 µM. Regarding `Cc1cccc(-c2n[nH]c(=S)n2-c2ccc3cc(C(=O)O)sc3c2)c1`, the dissociation constant Kd was greater than 250 µM. Turning to `O=C(O)c1cc2ccc(-n3c(-c4cccc(Oc5ccccc5)c4)n[nH]c3=S)cc2s1`, the Kd is 104 µM.

With `O=C(O)c1cc2ccc(-n3c(-c4ccc(F)cc4)n[nH]c3=S)cc2s1`, the Kd is greater than 250 µM.

Take `O=C(O)CSc1nnc(-c2cc3ccccc3s2)n1-c1ccc(Cl)c(Cl)c1`: the Kd was 58 µM. For `O=C(O)c1cc2ccc(-n3c(S)nnc3-c3ccc(Br)c(Cl)c3)cc2s1`, the dissociation constant (Kd) stood at 12 µM.

With `O=C(O)CSc1nnc(-c2ccc3ccccc3c2)n1-c1ccc(Cl)c(Cl)c1`, the Kd is 47 µM. With `Cc1cccc(-c2n[nH]c(=S)n2-c2ccc3c(Cl)c(C(=O)O)sc3c2)c1Br`, the dissociation constant Kd was 48 µM.

Tested on in a further assay: not listed separately
The experiment in a line: Inhibition of human RPA binding to [32P]-ssDNA overexpressed in Escherichia coli by EMSA. A general note: A gel shift assay detects complexes by their altered migration in electrophoresis.
Turning to `CCOc1ccc2cc(C3CN(C(=O)CCC(=O)O)N=C3c3ccc(Br)cc3)c(Cl)nc2c1` (centres undefined), the IC50 was 40 µM.

The species entered for a further assay is Homo sapiens. Kind of assay: Inhibition of full length RPA (unknown origin) binding to ssDNA up to 100 uM preincubated for 5 mins prior to substrate addition measured after 30 mins by EMSA.
Take `O=C(O)c1sc2cc(-n3c(S)nnc3-c3ccc(Br)c(Cl)c3)ccc2c1Cl`: the inhibition result is “inactive”. Still for that read-out and setting: the entry for `O=C(O)c1sc2cc(-n3c(S)nnc3-c3ccc(Cl)c(Cl)c3)ccc2c1Cl` is “inactive”.

The target of the next assay is T1, Replication protein A 70 kDa DNA-binding subunit. The experiment in a line: Binding affinity to human RPA (1 to 422) containing RPA70N and RPA70NAB assessed as inhibition of interaction with FITC-Ahx-DFTADDLEELDTLAS-NH2 after 1 hr by fluorescence polarization anisotropy assay.
Take `O=C(O)c1sc2cc(-n3c(S)nnc3-c3ccc(Br)c(Cl)c3)ccc2c1Cl`: the dissociation constant Kd worked out at 10 µM.

For `O=C(O)c1sc2cc(-n3c(S)nnc3-c3ccc(Cl)c(Cl)c3)ccc2c1Cl`, the Kd came to 17 µM.

The values are drawn from ChEMBL document CHEMBL2406933, “Discovery of Protein-Protein Interaction Inhibitors of Replication Protein A” (ACS Med Chem Lett, 2013).
